Measurements from patent US6620828B2, “Thiazole compounds and pharmaceutical compositions for inhibiting protein kinases and methods for their use” (Agouron Pharmaceuticals, Inc., priority 1999, dated 2003).

Each compound was assayed against T1, CDK4/Cyclin D3 complex (Homo sapiens, UniProt P11802) (assay: CDK4/Cyclin D assay). Settings: 1.0 μM; combinatorial library compounds.
T1 construct: made in house; host or cells: insect cells co-infected with baculovirus vectors
Format: biochemical
Outline: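 Insect-cell-expressed CDK4/cyclin D3 (50 nM) phosphorylating His-tagged Rb fragment (residues 386-928) with 25 μM [^32P]ATP in HEPES pH 7.4, MgCl2, 2% DMSO; 20 min at 30 °C, EDTA stop. Filter-captured 32P by phosphorimager; apparent Ki from competitive or tight-binding inhibition fits.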

T1 sequence (P11802 whole entry): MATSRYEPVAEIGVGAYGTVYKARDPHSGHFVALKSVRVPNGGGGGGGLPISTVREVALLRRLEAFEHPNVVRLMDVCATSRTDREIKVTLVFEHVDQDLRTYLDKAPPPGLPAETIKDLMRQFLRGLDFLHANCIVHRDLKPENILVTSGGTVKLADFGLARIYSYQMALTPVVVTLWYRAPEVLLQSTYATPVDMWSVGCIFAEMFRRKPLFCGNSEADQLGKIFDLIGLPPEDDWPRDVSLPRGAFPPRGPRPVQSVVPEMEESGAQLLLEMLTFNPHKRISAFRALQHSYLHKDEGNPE
T1 sequence (P30281 whole entry partner): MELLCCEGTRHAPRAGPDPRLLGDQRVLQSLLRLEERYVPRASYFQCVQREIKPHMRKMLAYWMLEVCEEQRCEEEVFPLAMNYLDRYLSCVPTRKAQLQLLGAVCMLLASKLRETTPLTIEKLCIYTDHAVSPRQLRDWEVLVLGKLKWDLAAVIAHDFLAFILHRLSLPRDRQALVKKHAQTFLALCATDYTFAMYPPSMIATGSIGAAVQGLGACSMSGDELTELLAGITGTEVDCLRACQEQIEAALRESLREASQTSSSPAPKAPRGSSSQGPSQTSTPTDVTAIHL

inhibition at 1 µM [%] | CDK4 % Inhibition at 1.0 μM [%] | Structure (SMILES)
-31.3 | – | Nc1nc(Nc2ccc(S(N)(=O)=O)cc2)sc1-c1nc(-c2cc(-c3ccc(Cl)c(Cl)c3)no2)cs1
49.7 | – | CC(C)c1ccc(Nc2nc(N)c(-c3nc(-c4ccc(-c5ccc(Cl)cc5Cl)o4)cs3)s2)cc1
48.3 | – | CC(C)c1ccc(Nc2nc(N)c(-c3nc(-c4ccc(C(F)(F)F)cc4)cs3)s2)cc1
58.4 | – | CC(C)c1ccc(Nc2nc(N)c(-c3nc(-c4ccc(C#N)cc4)cs3)s2)cc1
77 | – | CC(C)c1ccc(Nc2nc(N)c(-c3nc(-c4ccc(O)cc4)cs3)s2)cc1
36.2 | – | CCCCCc1ccc(-c2csc(-c3sc(Nc4ccc(N(C)C)cc4)nc3N)n2)cc1
– | 43.3 | Nc1nc(Nc2ccc(S(N)(=O)=O)cc2)sc1-c1nc(-c2ccccc2)cs1 [drawing 435]
48.5 | – | CN(C)c1ccc(Nc2nc(N)c(-c3nc(-c4ccccc4OC(=O)c4ccccc4)cs3)s2)cc1
76.5 | – | Cc1cc(-c2csc(-c3sc(Nc4ccc(C(C)C)cc4)nc3N)n2)c(C)s1
58.2 | – | Nc1nc(Nc2ccc(S(N)(=O)=O)cc2)sc1-c1nc(-c2ccc(F)cc2F)cs1 [drawing 445]
53.3 | – | COc1ccccc1-c1csc(-c2sc(Nc3ccc(C(C)C)cc3)nc2N)n1
56.1 | – | CC(C)c1ccc(Nc2nc(N)c(-c3nc(-c4ccccc4OC(=O)c4ccccc4)cs3)s2)cc1
79.2 | – | Nc1nc(Nc2ccc(S(N)(=O)=O)cc2)sc1-c1nc(-c2ccc(Cl)cc2Cl)cs1 [drawing 406]
36.5 | – | CN(C)c1ccc(Nc2nc(N)c(-c3nc(-c4ccc(Cl)cc4)cs3)s2)cc1
71.5 | – | CC(C)c1ccc(Nc2nc(N)c(-c3nc(-c4ccc(Cl)c([N+](=O)[O-])c4)cs3)s2)cc1
-12.6 | – | CN(C)c1ccc(Nc2nc(N)c(-c3nc(-c4ccc(-c5ccccc5)cc4)cs3)s2)cc1
– | 59.4 | CC(C)c1ccc(Nc2nc(N)c(-c3nc(-c4ccccc4)cs3)s2)cc1 [drawing 498]
-5.3 | – | Nc1nc(Nc2ccc(S(N)(=O)=O)cc2)sc1-c1nc(-c2ccc(F)c(F)c2)cs1

These compounds were tested against T2, FL-CHK1 (Homo sapiens, UniProt O14757) (assay: CHK1 assay). Settings: 20 μM; combinatorial library compounds.
T2 construct: C-terminally His-tagged full-length human CHK1 (FL-CHK1); 6xHis (C); made in house; host or cells: baculovirus/insect cells
T2 sequence (O14757 1-476): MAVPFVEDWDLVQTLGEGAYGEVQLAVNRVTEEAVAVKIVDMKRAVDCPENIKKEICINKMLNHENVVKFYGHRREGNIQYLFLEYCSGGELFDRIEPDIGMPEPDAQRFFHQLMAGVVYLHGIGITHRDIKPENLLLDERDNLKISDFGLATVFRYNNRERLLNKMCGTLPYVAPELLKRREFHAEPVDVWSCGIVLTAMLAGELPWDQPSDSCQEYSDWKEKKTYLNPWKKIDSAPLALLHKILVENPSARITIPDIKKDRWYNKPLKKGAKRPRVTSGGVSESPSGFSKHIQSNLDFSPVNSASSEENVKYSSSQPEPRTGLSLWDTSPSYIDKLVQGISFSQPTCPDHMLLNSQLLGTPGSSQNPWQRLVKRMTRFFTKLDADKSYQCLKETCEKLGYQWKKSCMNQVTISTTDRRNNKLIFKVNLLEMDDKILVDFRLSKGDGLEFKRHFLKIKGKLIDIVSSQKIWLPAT
Format: biochemical
Outline: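 Full-length human CHK1 with C-terminal 6×His tag, made in baculovirus/insect cells, 10 nM, phosphorylating 0.125 mM Syntide-2 with 0.15 mM ATP in 50 mM Tris pH 7.5, 25 mM MgCl2, 400 mM NaCl. PK/LDH-coupled NADH oxidation read at 340 nm. Ki from initial rates over varied compound concentrations.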

inhibition at 20 µM [%] | CHK1 % Inhibition at 20 μM [%] | Structure (SMILES)
0.5 | – | Nc1nc(Nc2ccc(S(N)(=O)=O)cc2)sc1-c1nc(-c2cc(-c3ccc(Cl)c(Cl)c3)no2)cs1
-7.9 | – | CC(C)c1ccc(Nc2nc(N)c(-c3nc(-c4ccc(-c5ccc(Cl)cc5Cl)o4)cs3)s2)cc1
3.7 | – | CC(C)c1ccc(Nc2nc(N)c(-c3nc(-c4ccc(C(F)(F)F)cc4)cs3)s2)cc1
7.1 | – | CC(C)c1ccc(Nc2nc(N)c(-c3nc(-c4ccc(C#N)cc4)cs3)s2)cc1
25 | – | CC(C)c1ccc(Nc2nc(N)c(-c3nc(-c4ccc(O)cc4)cs3)s2)cc1
9.5 | – | CCCCCc1ccc(-c2csc(-c3sc(Nc4ccc(N(C)C)cc4)nc3N)n2)cc1
– | 12.3 | Nc1nc(Nc2ccc(S(N)(=O)=O)cc2)sc1-c1nc(-c2ccccc2)cs1 [drawing 435]
9.8 | – | CN(C)c1ccc(Nc2nc(N)c(-c3nc(-c4ccccc4OC(=O)c4ccccc4)cs3)s2)cc1
27.4 | – | Cc1cc(-c2csc(-c3sc(Nc4ccc(C(C)C)cc4)nc3N)n2)c(C)s1
21.6 | – | Nc1nc(Nc2ccc(S(N)(=O)=O)cc2)sc1-c1nc(-c2ccc(F)cc2F)cs1 [drawing 445]
15.6 | – | COc1ccccc1-c1csc(-c2sc(Nc3ccc(C(C)C)cc3)nc2N)n1
-4.2 | – | CC(C)c1ccc(Nc2nc(N)c(-c3nc(-c4ccccc4OC(=O)c4ccccc4)cs3)s2)cc1
14.7 | – | Nc1nc(Nc2ccc(S(N)(=O)=O)cc2)sc1-c1nc(-c2ccc(Cl)cc2Cl)cs1 [drawing 406]
2.5 | – | CN(C)c1ccc(Nc2nc(N)c(-c3nc(-c4ccc(Cl)cc4)cs3)s2)cc1
23.5 | – | CC(C)c1ccc(Nc2nc(N)c(-c3nc(-c4ccc(Cl)c([N+](=O)[O-])c4)cs3)s2)cc1
5 | – | CN(C)c1ccc(Nc2nc(N)c(-c3nc(-c4ccc(-c5ccccc5)cc4)cs3)s2)cc1
– | 0.2 | CC(C)c1ccc(Nc2nc(N)c(-c3nc(-c4ccccc4)cs3)s2)cc1 [drawing 498]
17.5 | – | Nc1nc(Nc2ccc(S(N)(=O)=O)cc2)sc1-c1nc(-c2ccc(F)c(F)c2)cs1

What follows are compounds tested against T3, phosphorylated VEGF-R2Δ50 (FLVK-P) (Homo sapiens, UniProt P35968, DEL940-989/E990V) (assay: VEGF-R2 coupled spectrophotometric (FLVK-P) assay). Settings: 20 μM; combinatorial library compounds.
T3 construct: VEGF-R2Δ50 contains residues 806-939 and 990-1171; made in house; host or cells: baculovirus/insect cells
Format: biochemical
Outline: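 Baculovirus-expressed human VEGF-R2Δ50 (residues 806-939/990-1171, E990V) was autophosphorylated with 3 mM ATP, 40 mM MgCl2 for 2 h at 4° C. ADP formation was coupled via PK/LDH to NADH oxidation, read at 340 nm, with 5.1 mM poly(E4Y1), 1 mM ATP, 25 mM MgCl2, Hepes pH 7.5. Ki came from activity across compound concentrations.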

T3 sequence (P35968 with tags, fused parts or gaps DEL940-989/E990V limits assumed): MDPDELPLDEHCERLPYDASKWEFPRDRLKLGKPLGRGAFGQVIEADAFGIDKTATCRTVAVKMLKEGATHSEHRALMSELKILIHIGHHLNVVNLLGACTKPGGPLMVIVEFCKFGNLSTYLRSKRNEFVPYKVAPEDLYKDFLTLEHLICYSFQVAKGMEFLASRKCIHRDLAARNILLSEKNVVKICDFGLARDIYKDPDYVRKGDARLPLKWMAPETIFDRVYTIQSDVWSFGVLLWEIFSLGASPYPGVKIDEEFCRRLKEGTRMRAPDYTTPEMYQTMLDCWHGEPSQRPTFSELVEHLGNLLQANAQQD

VEGF % inhibition at 20 μM [%] | Structure (SMILES)
34 | Nc1nc(Nc2ccc(S(N)(=O)=O)cc2)sc1-c1nc(-c2ccccc2)cs1 [drawing 435]
22 | CC(C)c1ccc(Nc2nc(N)c(-c3nc(-c4ccccc4)cs3)s2)cc1 [drawing 498]

Same assay, conditions: read-out: VEGF % inhibition at 20 μM, 20 μM; combinatorial library compounds

inhibition at 20 µM [%] | Structure (SMILES)
-5 | Nc1nc(Nc2ccc(S(N)(=O)=O)cc2)sc1-c1nc(-c2cc(-c3ccc(Cl)c(Cl)c3)no2)cs1
3 | CC(C)c1ccc(Nc2nc(N)c(-c3nc(-c4ccc(-c5ccc(Cl)cc5Cl)o4)cs3)s2)cc1
-4 | CC(C)c1ccc(Nc2nc(N)c(-c3nc(-c4ccc(C(F)(F)F)cc4)cs3)s2)cc1
7 | CC(C)c1ccc(Nc2nc(N)c(-c3nc(-c4ccc(C#N)cc4)cs3)s2)cc1
49 | CC(C)c1ccc(Nc2nc(N)c(-c3nc(-c4ccc(O)cc4)cs3)s2)cc1
-8 | CCCCCc1ccc(-c2csc(-c3sc(Nc4ccc(N(C)C)cc4)nc3N)n2)cc1
23 | CN(C)c1ccc(Nc2nc(N)c(-c3nc(-c4ccccc4OC(=O)c4ccccc4)cs3)s2)cc1
50 | Cc1cc(-c2csc(-c3sc(Nc4ccc(C(C)C)cc4)nc3N)n2)c(C)s1
40 | Nc1nc(Nc2ccc(S(N)(=O)=O)cc2)sc1-c1nc(-c2ccc(F)cc2F)cs1 [drawing 445]
-13 | COc1ccccc1-c1csc(-c2sc(Nc3ccc(C(C)C)cc3)nc2N)n1
7 | CC(C)c1ccc(Nc2nc(N)c(-c3nc(-c4ccccc4OC(=O)c4ccccc4)cs3)s2)cc1
32 | Nc1nc(Nc2ccc(S(N)(=O)=O)cc2)sc1-c1nc(-c2ccc(Cl)cc2Cl)cs1 [drawing 406]
10 | CN(C)c1ccc(Nc2nc(N)c(-c3nc(-c4ccc(Cl)cc4)cs3)s2)cc1
7 | CC(C)c1ccc(Nc2nc(N)c(-c3nc(-c4ccc(Cl)c([N+](=O)[O-])c4)cs3)s2)cc1
-12 | CN(C)c1ccc(Nc2nc(N)c(-c3nc(-c4ccc(-c5ccccc5)cc4)cs3)s2)cc1
38 | Nc1nc(Nc2ccc(S(N)(=O)=O)cc2)sc1-c1nc(-c2ccc(F)c(F)c2)cs1

These compounds were tested against CDK2/Cyclin A complex (Homo sapiens, UniProt P24941) (assay: CDK2/Cyclin A assay). Settings: 1.0 μM; combinatorial library compounds.
Format: biochemical
Outline: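 Radiometric assay: 150 nM CDK2/cyclin A (insect-cell CDK2, truncated cyclin A) phosphorylates His-tagged Rb fragment (residues 386-928) with 25 μM ATP plus [32P]ATP, pH 7.4 HEPES, 2% DMSO, 30 °C for 20 min. Filter-captured product counted by phosphorimager; apparent Ki from competitive or tight-binding inhibition fits.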

inhibition at 1 µM [%] | CDK2 % Inhibition at 1.0 μM [%] | Structure (SMILES)
16.1 | – | Nc1nc(Nc2ccc(S(N)(=O)=O)cc2)sc1-c1nc(-c2cc(-c3ccc(Cl)c(Cl)c3)no2)cs1
15.1 | – | CC(C)c1ccc(Nc2nc(N)c(-c3nc(-c4ccc(-c5ccc(Cl)cc5Cl)o4)cs3)s2)cc1
8.7 | – | CC(C)c1ccc(Nc2nc(N)c(-c3nc(-c4ccc(C(F)(F)F)cc4)cs3)s2)cc1
5.9 | – | CC(C)c1ccc(Nc2nc(N)c(-c3nc(-c4ccc(C#N)cc4)cs3)s2)cc1
10.5 | – | CC(C)c1ccc(Nc2nc(N)c(-c3nc(-c4ccc(O)cc4)cs3)s2)cc1
-6 | – | CCCCCc1ccc(-c2csc(-c3sc(Nc4ccc(N(C)C)cc4)nc3N)n2)cc1
– | 60.8 | Nc1nc(Nc2ccc(S(N)(=O)=O)cc2)sc1-c1nc(-c2ccccc2)cs1 [drawing 435]
27.1 | – | CN(C)c1ccc(Nc2nc(N)c(-c3nc(-c4ccccc4OC(=O)c4ccccc4)cs3)s2)cc1
17.5 | – | Cc1cc(-c2csc(-c3sc(Nc4ccc(C(C)C)cc4)nc3N)n2)c(C)s1
74.1 | – | Nc1nc(Nc2ccc(S(N)(=O)=O)cc2)sc1-c1nc(-c2ccc(F)cc2F)cs1 [drawing 445]
6.3 | – | COc1ccccc1-c1csc(-c2sc(Nc3ccc(C(C)C)cc3)nc2N)n1
4.8 | – | CC(C)c1ccc(Nc2nc(N)c(-c3nc(-c4ccccc4OC(=O)c4ccccc4)cs3)s2)cc1
63 | – | Nc1nc(Nc2ccc(S(N)(=O)=O)cc2)sc1-c1nc(-c2ccc(Cl)cc2Cl)cs1 [drawing 406]
11.2 | – | CN(C)c1ccc(Nc2nc(N)c(-c3nc(-c4ccc(Cl)cc4)cs3)s2)cc1
14.2 | – | CC(C)c1ccc(Nc2nc(N)c(-c3nc(-c4ccc(Cl)c([N+](=O)[O-])c4)cs3)s2)cc1
14.5 | – | CN(C)c1ccc(Nc2nc(N)c(-c3nc(-c4ccc(-c5ccccc5)cc4)cs3)s2)cc1
– | 18.5 | CC(C)c1ccc(Nc2nc(N)c(-c3nc(-c4ccccc4)cs3)s2)cc1 [drawing 498]
12.4 | – | Nc1nc(Nc2ccc(S(N)(=O)=O)cc2)sc1-c1nc(-c2ccc(F)c(F)c2)cs1
